Laboratory results reported in US6503935B1, “Imidazoles and related compounds as α1A agonists” (Abbott Laboratories, priority 1998, dated 2003).
Where a name gives a salt, the structure may show the parent alone.

Experiments:
[1] = target: T1, α1A (rat submaxillary gland) (Rattus norvegicus, UniProt P43140); assay: Radioligand binding with [3H]-prazosin, α1A; conditions: rat submaxillary gland, [3H]-prazosin
T1 construct: α1A (rat submaxillary gland); from tissue; host or cells: rat submaxillary gland
T1 sequence (P43140 1-466): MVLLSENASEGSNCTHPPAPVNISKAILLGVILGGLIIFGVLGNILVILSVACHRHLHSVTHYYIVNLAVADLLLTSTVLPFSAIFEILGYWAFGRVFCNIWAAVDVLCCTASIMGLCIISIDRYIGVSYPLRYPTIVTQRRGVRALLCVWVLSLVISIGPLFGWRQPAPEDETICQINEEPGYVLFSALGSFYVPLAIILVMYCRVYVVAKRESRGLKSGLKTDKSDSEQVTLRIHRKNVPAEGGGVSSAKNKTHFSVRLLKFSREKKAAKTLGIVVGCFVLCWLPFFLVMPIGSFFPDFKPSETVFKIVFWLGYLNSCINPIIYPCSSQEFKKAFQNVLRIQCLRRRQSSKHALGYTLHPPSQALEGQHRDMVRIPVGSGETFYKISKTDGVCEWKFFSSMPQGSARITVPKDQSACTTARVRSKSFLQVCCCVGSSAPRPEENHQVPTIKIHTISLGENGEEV
In short: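 Radioligand binding with [3H]-prazosin: α1A from rat submaxillary gland; α1b hamster receptor and α1d rat receptor, each expressed in mouse fibroblasts.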

[2] = target: T2, α1B (rat spleen) (Rattus norvegicus, UniProt P15823); assay: Agonist contraction of smooth muscle tissue, rat spleen; format: cell-based; conditions: rat spleen; read-out: Agonist Tissue Response (pD2) α1B (rat spleen) (converted)
T2 construct: α1B (rat spleen) and α1D (rat aorta) receptors; from tissue; host or cells: rat spleen
T2 sequence (P15823 1-515): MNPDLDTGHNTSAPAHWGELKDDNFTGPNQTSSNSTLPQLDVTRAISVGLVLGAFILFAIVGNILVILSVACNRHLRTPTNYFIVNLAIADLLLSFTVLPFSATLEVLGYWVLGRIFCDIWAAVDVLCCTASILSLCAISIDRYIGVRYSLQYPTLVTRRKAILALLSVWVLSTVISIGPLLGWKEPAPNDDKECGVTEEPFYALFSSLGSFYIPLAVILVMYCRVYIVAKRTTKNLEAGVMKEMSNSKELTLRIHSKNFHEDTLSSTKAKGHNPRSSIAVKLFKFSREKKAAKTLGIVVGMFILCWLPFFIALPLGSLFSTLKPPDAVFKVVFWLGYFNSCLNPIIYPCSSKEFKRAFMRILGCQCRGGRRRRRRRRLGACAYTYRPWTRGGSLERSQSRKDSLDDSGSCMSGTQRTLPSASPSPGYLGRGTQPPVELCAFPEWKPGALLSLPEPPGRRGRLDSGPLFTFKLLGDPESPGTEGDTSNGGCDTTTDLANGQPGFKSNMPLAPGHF

[3] = target: T3, α1D (rat aorta) (Rattus norvegicus, UniProt P23944); assay: Agonist contraction of smooth muscle tissue, rat aorta; format: cell-based; conditions: rat aorta, endothelium removed; for EC50: read-out: Agonist Tissue Response (pD2) α1D (rat aorta) (converted)
T3 construct: α1B (rat spleen) and α1D (rat aorta) receptors; from tissue; host or cells: rat aorta strips, endothelium removed
T3 sequence (P23944 1-561): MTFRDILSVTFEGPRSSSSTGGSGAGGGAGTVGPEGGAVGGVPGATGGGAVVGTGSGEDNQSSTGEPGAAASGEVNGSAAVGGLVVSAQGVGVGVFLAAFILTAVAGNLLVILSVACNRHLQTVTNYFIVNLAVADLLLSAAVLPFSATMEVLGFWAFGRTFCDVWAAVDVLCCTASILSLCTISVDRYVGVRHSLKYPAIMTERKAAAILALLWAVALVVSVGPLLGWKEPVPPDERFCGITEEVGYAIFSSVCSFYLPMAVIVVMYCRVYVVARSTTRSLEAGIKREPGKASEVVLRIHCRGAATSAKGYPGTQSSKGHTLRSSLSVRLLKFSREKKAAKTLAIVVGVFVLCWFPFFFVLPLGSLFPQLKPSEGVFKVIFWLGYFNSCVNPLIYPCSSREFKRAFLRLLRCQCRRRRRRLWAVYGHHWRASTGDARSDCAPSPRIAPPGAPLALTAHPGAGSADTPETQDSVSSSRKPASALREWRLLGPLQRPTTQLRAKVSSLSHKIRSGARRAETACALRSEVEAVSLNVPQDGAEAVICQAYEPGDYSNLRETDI

[4] = system: Anesthetized Dogs; assay: Mean arterial pressure (MAP) in anesthetized dogs; format: in vivo, dog; conditions: iv dose causing a maximum increase in MAP of 20 mm Hg, anesthetized female dogs
In short: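 Female dogs (12–15 kg) with carotid telemetry implants, thiopental 15 mg/kg i.v. then isoflurane (2.5 to 3 volume %) anesthesia; increasing i.v. doses of agonist with return to baseline between doses. MAP from telemetered arterial pressure; ED20 = dose raising MAP by 20 mm Hg, compared with IUP ED5 as selectivity ratio.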

SMILES	Ki [1]	EC50 [2]	EC50 [3]	Mean MAP ED20 ([4]; maleate)	Agonist Tissue Response (pD2) α1D (rat aorta) [3]	Mean MAP ED20 [4]
CCS(=O)(=O)Nc1cccc2c1CCCC2c1c[nH]cn1.O=C(O)/C=C\C(=O)O (single isomer, unassigned; (+)) [Example 33, (+)-N-[5-(1H-imidazol-4-yl)-5,6,7,8-tetrahydro-1-naphthalenyl]ethanesulfonamide, maleate]	46.8 nM	3.8 µM	> 1 mM	34.0 nmol/kg		
CCS(=O)(=O)Nc1cccc2c1CCCC2c1c[nH]cn1.O=C(O)/C=C\C(=O)O (single isomer, unassigned; (-)) [Example 34, (−)-N-[5-(1H-imidazol-4-yl)-5,6,7,8-tetrahydro-1-naphthalenyl]ethanesulfonamide, maleate]	1300 nM	> 1000 µM		>1000 nmol/kg	<3.00	
CCS(=O)(=O)Nc1cccc2c1CCCC2c1c[nH]cn1.O=C(O)/C=C\C(=O)O (stereo not drawn) [Example 12, N-[5-(1H-imidazol-4-yl)-5,6,7,8-tetrahydro-1-naphthalenyl]ethanesulfonamide, maleate]	95.9 nM	> 1000 µM	> 1 mM			69.3 nmol/kg
CN(c1cccc2c1CCCC2c1c[nH]cn1)S(C)(=O)=O (stereo not drawn) [Example 15, N-[5,6,7,8-tetrahydro-5-(1H-imidazol-4-yl)-1-naphthalenyl]-N-methylmethanesulfonmamide, maleate]	204 nM	2.24 µM	> 1 mM			225 nmol/kg
O=C(Nc1cccc2c1CCCC2c1c[nH]cn1)C(F)(F)F (stereo not drawn) [Example 17, 2,2,2-trifluoro-N-[5-(1H-imidazol-4-yl)-5,6,7,8-tetahydro-1-naphthalenyl]acetamide, maleate]	167 nM	3.39 µM	> 1 mM			216 nmol/kg
CS(=O)(=O)Nc1cccc(Cc2c[nH]cn2)c1.O=C(O)/C=C\C(=O)O [Example 21, N-[3-(1H-imidazol-4-ylmethyl)phenyl]methanesulfonamide, maleate]	361 nM	> 1000 µM	> 1 mM			52.3 nmol/kg
COc1ccc(NS(C)(=O)=O)c2c1C(c1c[nH]cn1)CCC2 (stereo not drawn) [Example 26, N-[5,6,7,8-tetrahydro-(1H-imidazol-4-yl)-4-methoxyy-1-naphthalenyl]methanesulfonamide, maleate]	1680 nM	18.2 µM	> 1 mM			1850 nmol/kg
Cc1c(Cc2c[nH]cn2)cccc1NS(C)(=O)=O.O=C(O)/C=C\C(=O)O [Example 28, N-[3-(1H-imidazol-4-ylmethyl)-2-methylphenyl]methanesulfonamide, maleate]	525 nM	7.76 µM	> 1 mM			158 nmol/kg
CCS(=O)(=O)Nc1cccc(Cc2c[nH]cn2)c1C.O=C(O)/C=C\C(=O)O [Example 29, N-[3-(1H-imidazol-4-ylmethyl)-2-methylphenyl]ethanesulfonamide, maleate]	258 nM	> 1000 µM	> 1 mM			202 nmol/kg
CC(c1cccc(NS(C)(=O)=O)c1)c1c[nH]cn1.O=C(O)/C=C\C(=O)O (stereo not drawn) [Example 31, N-[3-[1-(1H-imidazol-4-yl)ethyl]phenyl]methanesulfonamide, maleate]	837 nM	> 1000 µM	> 1 mM			234 nmol/kg
CS(=O)(=O)Nc1ccc(F)c2c1CCCC2c1c[nH]cn1.O=C(O)/C=C\C(=O)O (stereo not drawn) [Example 44, N-[4-fluoro-5-(1H-imidazol-4-yl)-5,6,7,8-tetrahydro-1-naphthalenyl]methanesulfonamide, maleate]	310 nM	> 1000 µM	> 1 mM			632 nmol/kg
C=C(c1cccc(NS(=O)(=O)CC)c1)c1c[nH]cn1 [Example 45, N-{3-[1-(1H-imidazol-4-yl)vinyl]phenyly}ethanesulfonamide, maleate]	565 nM	> 1000 µM	> 1 mM			633 nmol/kg
